# Like-named read-outs stand apart in the source and are kept apart here.
# Columns and labels:
# Format in all cases: cell-based
# [1] = system: pancreatic cancer (8 cell lines); experiment: CellTiter-Glo Viability Assay, pancreatic cancer; settings: Homo sapiens
# Protocol: (§1) Fifty-one human cancer cell lines (breast cancer (8 cell lines), colorectal cancer (6 cell lines), haematopoietic & lymphoid tumors (13 cell lines), liver cancer (3 cell lines), lung cancer (4 cell lines), ovarian cancer (4 cell lines), pancreatic cancer (8 cell lines), and prostate cancer (5 cell lines)) were tested to determine the effects of representative compounds of Formulas (I)-(XII) on cellular proliferation, as evaluated using the CellTiter-Glo® Viability Assay.
# (§2) For the Cell Viability Assays, cells were plated at 300-3,000 cells/well in 384-well plates in their respective media containing 1% Penicillin-Streptomycin and incubated for four days at 37° C. and 5% CO2. Twenty-eight replicates of DMSO-treated cells served as controls and cells treated with compound were performed in duplicate.
# (§3) After incubation, 10 μL of CellTiter-Glo® (Promega) was added to each well allowed to incubate for approximately 12 minutes. This reagent results in cell lysis and generation of a luminescent signal proportional to the amount of ATP present. The amount of ATP is directly proportional to the number of metabolically active, viable cells present in culture. The CellTiter-Glo® Assay generates a luminescent signal, produced by the luciferase reaction (Promega.com).
# (§4) After incubation, the luminescence signal was read using an EnVision™ Multilabel Plate Reader (Perkin Elmer). Dose-response curves were generated and EC50 concentration values were calculated using Dotmatics' Studies Software (Bishops Stortford, UK).
# [2] = system: liver cancer (3 cell lines); experiment: CellTiter-Glo Viability Assay, liver cancer; settings: Homo sapiens
# Protocol: as §1, §2, §3, §4
# [3] = system: prostate cancer (5 cell lines); experiment: CellTiter-Glo Viability Assay, prostate cancer; settings: Homo sapiens
# Protocol: as §1, §2, §3, §4
# MCF7 = experiment: CellTiter-Glo Viability Assay, breast cancer; settings: Homo sapiens, MCF7, 96 h
# Protocol: as §1, §2, §3, §4
# HCC1599 = experiment: CellTiter-Glo Viability Assay, breast cancer; settings: Homo sapiens, HCC1599, 96 h
# Protocol: as §1, §2, §3, §4
# CAMA1 = experiment: CellTiter-Glo Viability Assay, breast cancer; settings: Homo sapiens, CAMA-1, 96 h
# Protocol: as §1, §2, §3, §4
# T47D = experiment: CellTiter-Glo Viability Assay, breast cancer; settings: Homo sapiens, 96 h
# Protocol: as §1, §2, §3, §4
# DU4475 = experiment: CellTiter-Glo Viability Assay, breast cancer; settings: Homo sapiens, DU-4475, 96 h
# Protocol: as §1, §2, §3, §4
# MDA-MB-231-Luc = experiment: CellTiter-Glo Viability Assay, breast cancer; settings: Homo sapiens, 96 h
# Protocol: as §1, §2, §3, §4
# ZR-75-1 = experiment: CellTiter-Glo Viability Assay, breast cancer; settings: Homo sapiens, ZR-75-1, 96 h
# Protocol: as §1, §2, §3, §4
# BT-549 = experiment: CellTiter-Glo Viability Assay, breast cancer; settings: Homo sapiens, BT-549, 96 h
# Protocol: as §1, §2, §3, §4
# [4] = system: ovarian cancer (4 cell lines); experiment: CellTiter-Glo Viability Assay, ovarian cancer; settings: Homo sapiens
# Protocol: as §1, §2, §3, §4
# [5] = system: haematopoietic & lymphoid tumors (13 cell lines); experiment: CellTiter-Glo Viability Assay, haematopoietic & lymphoid tumors; settings: Homo sapiens
# Protocol: as §1, §2, §3, §4
# [6] = system: lung cancer (4 cell lines); experiment: CellTiter-Glo Viability Assay, lung cancer; settings: Homo sapiens
# Protocol: as §1, §2, §3, §4
# [7] = system: colorectal cancer (6 cell lines); experiment: CellTiter-Glo Viability Assay, colorectal cancer; settings: Homo sapiens
# Protocol: as §1, §2, §3, §4
structure (smiles),measurement,setting,value
CN1CCN(c2cc(C(=O)Nc3cc4cc(-c5cnn(C)c5)ccc4cn3)ccn2)CC1 [Compound 12],EC50,"[1]; BXPC-3, read-out: Pancreatic cancer, EC50 BxPC3",420 nM
same,EC50,"[1]; CAPAN-1, read-out: Pancreatic cancer, EC50 Capan1",343 nM
same,EC50,"[1]; Capan-2, read-out: Pancreatic cancer, EC50 Capan2",415 nM
same,EC50,"[1]; MIA PaCa-2, read-out: Pancreatic cancer, EC50 MIA PaCa-2",131 nM
same,EC50,"[1]; PANC-1, read-out: Pancreatic cancer, EC50 PANC-1",294 nM
same,EC50,"[1]; Panc 05.04, read-out: Pancreatic cancer, EC50 PANC 05.04",340 nM
same,EC50,"[1]; read-out: Pancreatic cancer, EC50 UPAFII",153 nM
same,EC50,"[2]; HepG2, read-out: Liver cancer, EC50 HEPG2",309 nM
same,EC50,"[2]; PLC-PRF-5, read-out: Liver cancer, EC50 PLC/PRF/5",465 nM
same,EC50,"[2]; SNU-398, read-out: Liver cancer, EC50 SNU398",62 nM
same,EC50,"[3]; 22Rv1, read-out: Prostate cancer EC50 22Rv1",191 nM
same,EC50,"[3]; DU-145, read-out: Prostate cancer EC50 Du-145",377 nM
same,EC50,"[3]; LNCaP-Clone-FGC, read-out: Prostate cancer EC50 LNCap clone FGC",329 nM
same,EC50,"[3]; PC-3, read-out: Prostate cancer EC50 PC3",237 nM
same,EC50,"[3]; VCaP, read-out: Prostate cancer EC50 VCaP (Sigma)",462 nM
same,EC50,MCF7,600 nM
same,EC50,HCC1599,103 nM
same,EC50,CAMA1,347 nM
same,EC50,T47D,427 nM
same,EC50,DU4475,182 nM
same,EC50,MDA-MB-231-Luc,304 nM
same,EC50,ZR-75-1,361 nM
same,EC50,BT-549,231 nM
same,EC50,"[4]; OV-90, read-out: Ovarian cancer, EC50 (μM) OV-90",0.456 µM
same,EC50,"[4]; OVCAR-3, read-out: Ovarian cancer, EC50 (μM) OVCAR-3",0.113 µM
same,EC50,"[4]; PA-1, read-out: Ovarian cancer, EC50 (μM) PA1",0.172 µM
same,EC50,"[4]; TOV112D, read-out: Ovarian cancer, EC50 (μM) TOV-112D",0.152 µM
same,EC50,"[5]; DND41, read-out: Haematopoietic & Lymphoid tumors, EC50 (μM) DND-41",0.208 µM
same,EC50,"[5]; HL-60, read-out: Haematopoietic & Lymphoid tumors, EC50 (μM) HL-60",0.518 µM
same,EC50,"[5]; JM1, read-out: Haematopoietic & Lymphoid tumors, EC50 (μM) JM1",0.095 µM
same,EC50,"[5]; JeKo-1, read-out: Haematopoietic & Lymphoid tumors, EC50 (μM) JeKo-1",0.081 µM
same,EC50,"[5]; Jurkat, read-out: Haematopoietic & Lymphoid tumors, EC50 (μM) JURKAT, Clone E6-1",0.412 µM
same,EC50,"[5]; Kasumi 1, read-out: Haematopoietic & Lymphoid tumors, EC50 (μM) KASUMI-1",0.156 µM
same,EC50,"[5]; MOLT-4, read-out: Haematopoietic & Lymphoid tumors, EC50 (μM) MOLT-4",0.302 µM
same,EC50,"[5]; MV4-11, read-out: Haematopoietic & Lymphoid tumors, EC50 (μM) MV-4-11",0.082 µM
same,EC50,"[5]; Rec1, read-out: Haematopoietic & Lymphoid tumors, EC50 (μM) REC-1",0.075 µM
same,EC50,"[5]; SU-DHL-4, read-out: Haematopoietic & Lymphoid tumors, EC50 (μM) SUDHL4",0.335 µM
same,EC50,"[5]; TF-1, read-out: Haematopoietic & Lymphoid tumors, EC50 (μM) TF-1",0.386 µM
same,EC50,"[5]; Toledo, read-out: Haematopoietic & Lymphoid tumors, EC50 (μM) TOLEDO",0.101 µM
same,EC50,"[5]; read-out: Haematopoietic & Lymphoid tumors, EC50 (μM) Loucy",0.155 µM
same,EC50,"[6]; A-427, read-out: Lung cancer, EC50 (μM) A427",0.277 µM
same,EC50,"[6]; HCC78, read-out: Lung cancer, EC50 (μM) HCC-78",0.326 µM
same,EC50,"[6]; NCI-H460, read-out: Lung cancer, EC50 (μM) NCI-H460",0.261 µM
same,EC50,"[6]; NCI-H522, read-out: Lung cancer, EC50 (μM) NCI-H522",0.133 µM
same,EC50,"[7]; DLD-1, read-out: Colorectal cancer, EC50 (μM) DLD-1",0.183 µM
same,EC50,"[7]; HCT-116, read-out: Colorectal cancer, EC50 (μM) HCT116",0.138 µM
same,EC50,"[7]; HT-29, read-out: Colorectal cancer, EC50 (μM) HT29",0.291 µM
same,EC50,"[7]; SW48, read-out: Colorectal cancer, EC50 (μM) SW48",0.09 µM
same,EC50,"[7]; SW480, read-out: Colorectal cancer, EC50 (μM) SW480",0.159 µM
same,EC50,"[7]; SW-620, read-out: Colorectal cancer, EC50 (μM) SW620",0.114 µM
